In PubChem BioAssay AID196 (DTP/NCI, 2004):
Values joined by “and” are separate entries in the source; they are usually repeats but may differ in a detail not shown here. Equal entries are not always repeated. Inconclusive results and toxic doses are left out.

Test system: BDF1 mice, intracerebral B16 melanoma, median survival T/C
Assay: NCI In Vivo Anticancer Drug Screen. Data for tumor model B16 Melanoma (intracerebral) in B6D2F1 (BDF1) mice
Conditions: endpoint: median survival time, higher = longer survival
Experimental: The antitumor activity of compounds was measured in mice bearing transplantable tumors. Survival or tumor size were measured and the results are expressed as the measurement made in the treated group (T) divided by the measurement made in the vehicle treated control group (C). The tumor model used in this assay is B16 Melanoma (intracerebral) in B6D2F1 (BDF1) mice

[1] = dose: 8.0 mg/kg/injection, schedule: Q01DX009 (ip), vehicle: Klucel (hydroxypropylcellulose) (HPC)
[2] = dose: 16.0 mg/kg/injection, schedule: Q01DX009 (ip), vehicle: Klucel (hydroxypropylcellulose) (HPC)
[3] = dose: 32.0 mg/kg/injection, schedule: Q01DX009 (ip), vehicle: Klucel (hydroxypropylcellulose) (HPC)
[4] = dose: 64.0 mg/kg/injection, schedule: Q01DX009 (ip), vehicle: Klucel (hydroxypropylcellulose) (HPC)
[5] = dose: 128.0 mg/kg/injection, schedule: Q01DX009 (ip), vehicle: Klucel (hydroxypropylcellulose) (HPC)
[6] = dose: 256.0 mg/kg/injection, schedule: Q01DX009 (ip), vehicle: Klucel (hydroxypropylcellulose) (HPC)
[7] = dose: 512.0 mg/kg/injection, schedule: Q01DX009 (ip), vehicle: Klucel (hydroxypropylcellulose) (HPC)
[8] = dose: 100.0 mg/kg/injection, schedule: Q01DX009 (ip), vehicle: saline
[9] = dose: 200.0 mg/kg/injection, schedule: Q01DX009 (ip), vehicle: saline
[10] = dose: 2.0 mg/kg/injection, schedule: Q01DX009 (ip), vehicle: water

Structure (SMILES): CN=NNc1nc[nH]c1C(N)=O
- T/C (dose: 16.0 mg/kg/injection, schedule: Q01DX005 (ip), vehicle: saline): 106 % of control
- T/C (dose: 32.0 mg/kg/injection, schedule: Q01DX005 (ip), vehicle: saline): 95 % of control
- T/C (dose: 64.0 mg/kg/injection, schedule: Q01DX005 (ip), vehicle: saline): 102 % of control
- T/C (dose: 128.0 mg/kg/injection, schedule: Q01DX005 (ip), vehicle: saline): 107 % of control

Structure (SMILES): CN(Cc1cnc2nc(N)nc(N)c2n1)c1c(Cl)cc(C(=O)NC(CCC(=O)O)C(=O)O)cc1Cl (stereo not given)
- T/C [1]: 100 % of control
- T/C [2]: 110 % of control
- T/C [3]: 94 % of control
- T/C [4]: 96 % of control
- T/C [5]: 100 % of control

Structure (SMILES): CCC(=O)O[C@H]1CC[C@H]2[C@@H]3CCC4=CC(=O)CC[C@]4(C)[C@H]3CC[C@]12C
- T/C [1]: 99 % of control
- T/C [2]: 116 % of control
- T/C [3]: 111 % of control
- T/C [4]: 99 % of control
- T/C [5]: 123 % of control
- T/C [6]: 97 % of control
- T/C [7]: 104 % of control

Structure (SMILES): CN(C)c1nc(N(C)C)nc(N(C)C)n1
- T/C (dose: 100.0 mg/kg/injection, schedule: Q01DX005 (ip), vehicle: saline with Tween-80): 91 % of control

Structure (SMILES): CCCCCC(=O)O[C@]1(C(C)=O)CC[C@H]2[C@@H]3CCC4=CC(=O)CC[C@]4(C)[C@H]3CC[C@@]21C
- T/C [1]: 100 % of control
- T/C [2]: 101 % of control
- T/C [3]: 100 % of control
- T/C [4]: 100 % of control
- T/C [5]: 98 % of control
- T/C [6]: 94 % of control
- T/C [7]: 101 % of control

Structure (SMILES): COc1ccc(C(=O)/C(Br)=C/C(=O)O)cc1
- T/C (dose: 10.0 mg/kg/injection, schedule: Q01DX005 (ip), vehicle: saline): 91 % of control and 105 % of control
- T/C (dose: 20.0 mg/kg/injection, schedule: Q01DX005 (ip), vehicle: saline): 90 % of control and 93 % of control
- T/C (dose: 40.0 mg/kg/injection, schedule: Q01DX005 (ip), vehicle: saline): 97 % of control and 99 % of control

Structure (SMILES): CCC1=C(c2ccc(OC)cc2)CCC(C(=O)O)C1C (stereo not given)
- T/C (dose: 4.0 mg/kg/injection, schedule: Q01DX005 (ip), vehicle: saline with Tween-80): 95 % of control
- T/C (dose: 4.0 mg/kg/injection, schedule: Q01DX005 (ip), vehicle: suspension in saline): 103 % of control
- T/C (dose: 8.0 mg/kg/injection, schedule: Q01DX005 (ip), vehicle: saline with Tween-80): 91 % of control
- T/C (dose: 8.0 mg/kg/injection, schedule: Q01DX005 (ip), vehicle: suspension in saline): 95 % of control
- T/C (dose: 16.0 mg/kg/injection, schedule: Q01DX005 (ip), vehicle: suspension in saline): 87 % of control
- T/C (dose: 32.0 mg/kg/injection, schedule: Q01DX005 (ip), vehicle: saline with Tween-80): 105 % of control
- T/C (dose: 32.0 mg/kg/injection, schedule: Q01DX005 (ip), vehicle: suspension in saline): 95 % of control

Structure (SMILES): CN(CO)c1nc(N(C)CO)nc(N(C)CO)n1
- T/C (dose: 50.0 mg/kg/injection, schedule: Q01DX009 (ip), vehicle: Klucel (hydroxypropylcellulose) (HPC)): 100 % of control and 104 % of control
- T/C (dose: 100.0 mg/kg/injection, schedule: Q01DX009 (ip), vehicle: Klucel (hydroxypropylcellulose) (HPC)): 120 % of control and 106 % of control

Structure (SMILES): CNNCc1ccc(C(=O)NC(C)C)cc1
- T/C (dose: 25.0 mg/kg/injection, schedule: Q01DX009 (ip), vehicle: saline): 120 % of control
- T/C (dose: 75.0 mg/kg/injection, schedule: Q01DX009 (ip), vehicle: water): 154 % of control
- T/C [8]: 163 % of control
- T/C (dose: 150.0 mg/kg/injection, schedule: Q01DX009 (ip), vehicle: water): 163 % of control
- T/C [9]: 168 % of control and 170 % of control
- T/C (dose: 300.0 mg/kg/injection, schedule: Q01DX009 (ip), vehicle: water): 100 % of control

Structure (SMILES): Cc1cn(C2CC(O)C(CO)O2)c(=O)[nH]c1=O (stereo not given)
- T/C (dose: 100.0 mg/kg/injection, schedule: Q01DX009 (ip), vehicle: saline with Tween-80): 102 % of control and 109 % of control
- T/C [8]: 100 % of control and 111 % of control
- T/C (dose: 200.0 mg/kg/injection, schedule: Q01DX009 (ip), vehicle: saline with Tween-80): 105 % of control
- T/C [9]: 103 % of control and 110 % of control
- T/C (dose: 400.0 mg/kg/injection, schedule: Q01DX009 (ip), vehicle: saline with Tween-80): 105 % of control
- T/C (dose: 400.0 mg/kg/injection, schedule: Q01DX009 (ip), vehicle: saline): 94 % of control and 101 % of control
- T/C (dose: 800.0 mg/kg/injection, schedule: Q01DX009 (ip), vehicle: saline with Tween-80): 124 % of control and 95 % of control
- T/C (dose: 800.0 mg/kg/injection, schedule: Q01DX009 (ip), vehicle: saline): 100 % of control and 107 % of control
- T/C (dose: 1600.0 mg/kg/injection, schedule: Q01DX009 (ip), vehicle: saline with Tween-80): 92 % of control and 94 % of control

Structure (SMILES): CN(C)N=Nc1ccc(Cl)c2ncccc12
- T/C (dose: 3.12 mg/kg/injection, schedule: Q01DX009 (ip), vehicle: other): 108 % of control
- T/C (dose: 6.25 mg/kg/injection, schedule: Q01DX009 (ip), vehicle: other): 97 % of control
- T/C (dose: 12.5 mg/kg/injection, schedule: Q01DX009 (ip), vehicle: other): 100 % of control
- T/C (dose: 50.0 mg/kg/injection, schedule: Q01DX009 (ip), vehicle: other): 94 % of control

Structure (SMILES): O=NN(CCCl)C(=O)NC1OC(CO)C(O)C(O)C1O (stereo not given)
- T/C (dose: 0.31 mg/kg/injection, schedule: Q01DX009 (ip), vehicle: saline): 112 % of control
- T/C (dose: 0.62 mg/kg/injection, schedule: Q01DX009 (ip), vehicle: saline): 109 % of control
- T/C (dose: 1.25 mg/kg/injection, schedule: Q01DX009 (ip), vehicle: saline): 115 % of control
- T/C (dose: 2.5 mg/kg/injection, schedule: Q01DX009 (ip), vehicle: saline): 106 % of control
- T/C (dose: 5.0 mg/kg/injection, schedule: Q01DX009 (ip), vehicle: saline): 122 % of control

Structure (SMILES): COc1cc([C@@H]2c3cc4c(cc3[C@@H](OC3OC5CO[C@@H](c6cccs6)OC5C(O)C3O)[C@H]3COC(=O)[C@H]23)OCO4)cc(OC)c1O (stereo not given in full)
- T/C (dose: 0.25 mg/kg/injection, schedule: Q01DX009 (ip), vehicle: saline): 96 % of control
- T/C (dose: 0.5 mg/kg/injection, schedule: Q01DX009 (ip), vehicle: saline): 107 % of control
- T/C (dose: 0.5 mg/kg/injection, schedule: Q01DX009 (ip), vehicle: water): 91 % of control
- T/C (dose: 1.0 mg/kg/injection, schedule: Q01DX009 (ip), vehicle: saline): 95 % of control and 100 % of control
- T/C (dose: 1.0 mg/kg/injection, schedule: Q01DX009 (ip), vehicle: water): 104 % of control
- T/C (dose: 2.0 mg/kg/injection, schedule: Q01DX009 (ip), vehicle: saline): 100 % of control and 108 % of control
- T/C [10]: 95 % of control
- T/C (dose: 4.0 mg/kg/injection, schedule: Q01DX009 (ip), vehicle: saline): 104 % of control

Structure (SMILES): NC(Cc1ccc(N(CCCl)CCCl)cc1)C(=O)O (stereo not given)
- T/C [10]: 120 % of control

Structure (SMILES): CS(=O)(=O)Nc1ccc(Nc2c3ccccc3nc3cc([N+](=O)[O-])ccc23)cc1
- T/C (dose: 25.0 mg/kg/injection, schedule: Q04DX003 (ip), vehicle: saline sonified): 100 % of control
- T/C (dose: 50.0 mg/kg/injection, schedule: Q04DX003 (ip), vehicle: saline sonified): 95 % of control
- T/C (dose: 75.0 mg/kg/injection, schedule: Q04DX003 (ip), vehicle: saline sonified): 87 % of control

Structure (SMILES): S=c1nc[nH]c2nc[nH]c12
- T/C (dose: 11.3 mg/kg/injection, schedule: Q01DX009 (ip), vehicle: other): 91 % of control
- T/C (dose: 22.5 mg/kg/injection, schedule: Q01DX009 (ip), vehicle: other): 100 % of control
- T/C (dose: 45.0 mg/kg/injection, schedule: Q01DX009 (ip), vehicle: other): 100 % of control

Structure (SMILES): CC[n+]1c(-c2ccccc2)c2cc(N)ccc2c2ccc(N)cc21
- T/C (dose: 6.0 mg/kg/injection, schedule: Q01DX005 (ip), vehicle: saline): 95 % of control
- T/C (dose: 12.0 mg/kg/injection, schedule: Q01DX005 (ip), vehicle: saline): 104 % of control and 105 % of control and 109 % of control
- T/C (dose: 24.0 mg/kg/injection, schedule: Q01DX005 (ip), vehicle: saline): 105 % of control

Structure (SMILES): CC(=O)NNC(=O)c1ccccn1
- T/C (dose: 100.0 mg/kg/injection, schedule: Q01DX005 (ip), vehicle: Klucel (hydroxypropylcellulose) (HPC)): 104 % of control and 108 % of control
- T/C (dose: 200.0 mg/kg/injection, schedule: Q01DX005 (ip), vehicle: Klucel (hydroxypropylcellulose) (HPC)): 100 % of control
